Consider seven molecules from patent publication US20110065669A1, “OXAZOLOBENZIMIDAZOLE DERIVATIVES” (Merck Sharp & Dohme Corp., priority 2008, published 2011).

In the assay the target is T1, recombinant human mGluR2 (Homo sapiens, UniProt Q14416).
T1 construct: expressed in transfected cells
T1 sequence (Q14416 19-872): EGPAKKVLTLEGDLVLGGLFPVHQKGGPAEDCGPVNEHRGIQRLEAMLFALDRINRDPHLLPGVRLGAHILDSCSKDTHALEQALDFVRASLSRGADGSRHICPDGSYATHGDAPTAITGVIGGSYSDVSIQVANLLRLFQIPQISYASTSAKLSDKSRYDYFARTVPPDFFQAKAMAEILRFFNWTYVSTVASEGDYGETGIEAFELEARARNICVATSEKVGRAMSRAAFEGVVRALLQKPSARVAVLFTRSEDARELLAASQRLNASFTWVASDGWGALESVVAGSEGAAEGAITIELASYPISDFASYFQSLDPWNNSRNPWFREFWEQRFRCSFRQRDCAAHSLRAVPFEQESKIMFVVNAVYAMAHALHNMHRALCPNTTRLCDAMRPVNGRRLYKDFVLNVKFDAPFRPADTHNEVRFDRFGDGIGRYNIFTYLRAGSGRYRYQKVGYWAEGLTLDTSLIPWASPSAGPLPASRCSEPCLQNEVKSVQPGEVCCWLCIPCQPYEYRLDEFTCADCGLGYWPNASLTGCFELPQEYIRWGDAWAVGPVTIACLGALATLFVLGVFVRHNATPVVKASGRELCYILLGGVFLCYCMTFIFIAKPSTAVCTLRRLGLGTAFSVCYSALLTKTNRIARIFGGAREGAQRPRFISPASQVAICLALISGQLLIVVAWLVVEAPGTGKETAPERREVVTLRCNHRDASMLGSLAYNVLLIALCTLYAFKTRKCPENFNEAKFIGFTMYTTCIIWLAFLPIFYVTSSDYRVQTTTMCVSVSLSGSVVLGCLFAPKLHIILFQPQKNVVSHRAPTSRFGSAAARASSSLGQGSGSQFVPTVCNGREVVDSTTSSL
The assay can be described thus: FLIPR assay (Ca2+ mobilization), potentiation of the mGluR2 receptor. Type of assay: cell-based. Particulars: CHO dhfr- cells expressing human mGluR2 and Gα16; potentiation after EC20 glutamate (900 nM). On the procedure: Inhibition constants are determined as follows. The compounds of the present invention may be tested in a […] (FLIPR) based assay. This assay is a common functional assay to monitor Ca^2+ mobilization in whole cells expressing recombinant receptor coupled with a promiscuous G-protein. CHO dhfr-cells stably expressing recombinant human mGluR2 and Gα16 loaded with Fluo-4 AM (Invitrogen, Carlsbad Calif.) are treated with dose responses of compounds and the Ca^2+ response is monitored on a FLIPR384 (Molecular Devices, Sunnydale Calif.) for agonist activity. The potentiation response is monitored after a subsequent addition of an EC20 concentration of glutamate (900 nM). The maximum calcium response at each concentration of compound for agonist or potentiation are plotted as dose responses and the curves are fitted with a four parameters logistic equation giving EC50 and Hill coefficient using the iterative non linear curve fitting software program.
For `CC(=O)c1cccc(OC[C@@H]2Cn3c(nc4ccccc43)O2)c1` [Example 1-5, 1-{3-[(2S)-2,3-dihydro[1,3]oxazolo[3,2-a]benzimidazol-2-ylmethoxy]phenyl}ethanone], the EC50 turned out to be 522 nM.

As to `CC(C)(C)c1ccc(OC[C@@H]2Cn3c(nc4ccccc43)O2)cc1` [Example 1-4, (2S)-2-[(4-tert-butylphenoxy)methyl]-2,3-dihydro[1,3]oxazolo[3,2-a]benzimidazole], the EC50 is 11 nM. Take `Cn1nccc1-c1ccc(OC[C@@H]2Cn3c(nc4ccccc43)O2)cc1` [Example 2-1, (2S)-2-{[4-(1-methyl-1H-pyrazol-5-yl)phenoxy]methyl}-2,3-dihydro[1,3]oxazolo[3,2-a]benzimidazole]: the EC50 came to 137 nM. On to `C[Si](C)(C)c1ccc(OC[C@@H]2Cn3c(nc4ccccc43)O2)cc1` [Example 4-1, (2S)-2-{[4-(trimethylsilyl)phenoxy]methyl}-2,3-dihydro[1,3]oxazolo[3,2-a]benzimidazole], for which the EC50 was determined as 27 nM. Consider `CC(C)(c1ccc(OC[C@@H]2Cn3c(nc4ccccc43)O2)cc1)C(F)(F)F` [Example 3-5, (2S)-2-{[4-(2,2,2-trifluoro-1,1-dimethylethyl)phenoxy]methyl}-2,3-dihydro[1,3]oxazolo[3,2-a]benzimidazole], for which the EC50 was 12 nM. `c1ccc(OC[C@@H]2Cn3c(nc4ccccc43)O2)cc1` [Example 3-20, (2S)-2-(phenoxymethyl)-2,3-dihydro[1,3]oxazolo[3,2-a]benzimidazole, reference compound]: the EC50 amounted to 235 nM. For the molecule `Clc1cccc(OC[C@@H]2Cn3c(nc4ccccc43)O2)c1` [Example 3-9, (2S)-2-[(3-chlorophenoxy)methyl]-2,3-dihydro[1,3]oxazolo[3,2-a]benzimidazole], the EC50 is 37 nM.
